# Results: US11090304B2 (Amgen Inc., priority 2018, dated 2021)
# pIC50: −log10 of the molar value.
# Molecular target: GDP-bound KRAS protein (aa 1-169), containing both G12C and C118A amino acid substitutions (Homo sapiens, UniProt P01116, C118A/G12C)
# Assay: Coupled nucleotide exchange assay (SOS-mediated, AlphaScreen)
# Assay type: biochemical
# Details: 5 min compound pre-incubation
# GDP-bound KRAS protein (aa 1-169), containing both G12C and C118A amino acid substitutions, sequence (P01116 1-169 isoform P01116-2 G12C/C118A): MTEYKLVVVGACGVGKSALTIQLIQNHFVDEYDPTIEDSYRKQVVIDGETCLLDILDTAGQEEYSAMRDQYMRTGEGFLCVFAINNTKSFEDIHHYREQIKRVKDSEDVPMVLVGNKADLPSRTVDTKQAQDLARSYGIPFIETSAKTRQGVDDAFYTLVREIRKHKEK
row,Coupled exchange IC50 (5 min),Compound
1,40.7 | nda μM,"C=CC(=O)N1CCN(c2nc(=O)n(-c3c(CC)cccc3CC)c3nc(N4CC[C@H](OC)C4)c(Cl)cc23)[C@@H](C)C1 [Example 66-22, 6-chloro-1-(2,6-diethylphenyl)-7-((3S)-3-methoxy-1-pyrrolidinyl)-4-((2S)-2-methyl-4-(2-propenoyl)-1-piperazinyl)pyrido[2,3-d]pyrimidin-2(1H)-one]"
2,160 | nda μM,"C=CC(=O)N1CCN(c2nc(=O)n(-c3c(CC)cccc3CC)c3nc(N4CCC[C@@H]4C#N)c(Cl)cc23)[C@@H](C)C1 [Example 66-23, (2R)-1-(6-chloro-1-(2,6-diethylphenyl)-4-((2S)-2-methyl-4-(2-propenoyl)-1-piperazinyl)-2-oxo-1,2-dihydropyrido[2,3-d]pyrimidin-7-yl)-2-pyrrolidinecarbonitrile]"
3,95 | nda μM,"C=CC(=O)N1CCN(c2nc(=O)n(-c3c(CC)cccc3CC)c3nc(N4CCOC(C5CC5)C4)c(Cl)cc23)[C@@H](C)C1 (stereo partly drawn) [Example 66-25, 6-chloro-7-(2-cyclopropyl-4-morpholinyl)-1-(2,6-diethylphenyl)-4-((2S)-2-methyl-4-(2-propenoyl)-1-piperazinyl)pyrido[2,3-d]pyrimidin-2(1H)-one]"
4,16.6 | nda μM,"C=CC(=O)N1CCN(c2nc(=O)n(-c3c(CC)cccc3CC)c3nc(N4CCC[C@H](C)C4)c(Cl)cc23)[C@@H](C)C1 [Example 66-28, 6-chloro-1-(2,6-diethylphenyl)-7-((3S)-3-methyl-1-piperindinyl)-4-((2S)-2-methyl-4-(2-propenoyl)-1-piperazinyl)pyrido[2,3-d]pyrimidin-2(1H)-one]"
5,25.3 | nda μM,"C=CC(=O)N1CCN(c2nc(=O)n(-c3c(CC)cccc3CC)c3nc(N4CCC(C)(C)CC4)c(Cl)cc23)[C@@H](C)C1 [Example 66-29, 6-chloro-1-(2,6-diethylphenyl)-7-(4,4-dimethyl-1-piperindinyl)-4-((2S)-2-methyl-4-(2-propenoyl)-1-piperazinyl)pyrido[2,3-d]pyrimidin-2(1H)-one]"
6,16.05 | nda μM,"C=CC(=O)N1CCN(c2nc(=O)n(-c3c(CC)cccc3CC)c3nc(N4CCOC[C@@H]4C)c(Cl)cc23)[C@@H](C)C1 [Example 66-30, 6-chloro-1-(2,6-diethylphenyl)-7-((3S)-3-methyl-4-morpholinyl)-4-((2S)-2-methyl-4-(2-propenoyl)-1-piperazinyl)pyrido[2,3-d]pyrimidin-2(1H)-one]"
7,84.25 | nda μM,"C=CC(=O)N1CCN(c2nc(=O)n(-c3c(CC)cccc3CC)c3nc(N4C[C@@H]5C[C@H]4CO5)c(Cl)cc23)[C@@H](C)C1 [Example 66-31, 6-chloro-1-(2,6-diethylphenyl)-4-((2S)-2-methyl-4-(2-propenoyl)-1-piperazinyl)-7-((1S,4S)-2-oxa-5-azabicyclo[2.2.1]heptan-5-yl)pyrido[2,3-d]pyrimidin-2(1H)-one]"
8,15.9 | nda μM,"C=CC(=O)N1CCN(c2nc(=O)n(-c3c(CC)cccc3CC)c3nc(N4CCOC[C@H]4C)c(Cl)cc23)[C@@H](C)C1 [Example 66-33, 6-chloro-1-(2,6-diethylphenyl)-7-((3R)-3-methyl-4-morpholinyl)-4-((2S)-2-methyl-4-(2-propenoyl)-1-piperazinyl)pyrido[2,3-d]pyrimidin-2(1H)-one]"
9,3.51 | nda μM,"C=CC(=O)N1CCN(c2nc(=O)n(-c3ccccc3C(C)C)c3nc(-c4ccncc4F)c(Cl)cc23)[C@@H](C)C1 [Example 67-1, 6-Chloro-7-(3-fluoro-4-pyridinyl)-4-((2S)-2-methyl-4-(2-propenoyl)-1-piperazinyl)-1-(2-(2-propanyl)phenyl)pyrido[2,3-d]pyrimidin-2(1H)-one]"
10,6.45 | nda μM,"C=CC(=O)N1CCN(c2nc(=O)n(-c3ccccc3C(C)C)c3nc(-c4cc(C(F)(F)F)nn4C)c(Cl)cc23)[C@@H](C)C1 [Example 67-2, 6-chloro-4-((2S)-2-methyl-4-(2-propenoyl)-1-piperazinyl)-7-(1-methyl-3-(trifluoromethyl)-1H-pyrazol-5-yl)-1-(2-(2-propanyl)phenyl)pyrido[2,3-d]pyrimidin-2(1H)-one]"
11,2.87 | nda μM,"C=CC(=O)N1CCN(c2nc(=O)n(-c3ccccc3C(C)C)c3nc(-c4c(C)cnn4C)c(Cl)cc23)[C@@H](C)C1 [Example 67-3, 6-chloro-7-(1,4-dimethyl-1H-pyrazol-5-yl)-4-((2S)-2-methyl-4-(2-propenoyl)-1-piperazinyl)-1-(2-(2-propanyl)phenyl)pyrido[2,3-d]pyrimidin-2(1H)-one]"
12,5.64 | nda μM,C=CC(=O)N1CCN(c2nc(=O)n(-c3ccccc3C(C)C)c3nc(N4CCCCC4C)c(Cl)cc23)[C@@H](C)C1 (some centres unmarked) [Example 69-5]
13,13.7 | nda μM,"C=CC(=O)N1CCN(c2nc(=O)n(-c3ccccc3C(C)C)c3nc(N(C)C(C)C)c(Cl)cc23)[C@@H](C)C1 [Example 69-6, 6-chloro-7-(methyl(2-propanyl)amino)-4-((2S)-2-methyl-4-(2-propenoyl)-1-piperazinyl)-1-(2-(2-propanyl)phenyl)pyrido[2,3-d]pyrimidin-2(1H)-one]"
14,48.5 | nda μM,"C=CC(=O)N1CCN(c2nc(=O)n(-c3ccccc3C(C)C)c3nc(N(C)CCO)c(Cl)cc23)[C@@H](C)C1 [Example 69-7, 6-chloro-7-((2-hydroxyethyl)(methyl)amino)-4-((2S)-2-methyl-4-(2-propenoyl)-1-piperazinyl)-1-(2-(2-propanyl)phenyl)pyrido[2,3-d]pyrimidin-2(1H)-one]"
15,1.12 | nda μM,"C=CC(=O)N1CCN(c2nc(=O)n(-c3c(C)cccc3C(C)C)c3nc(-c4nc(N)ccc4Cl)c(F)cc23)[C@@H](C)C1 [Example 71-1, 7-(6-Amino-3-chloro-2-pyridinyl)-6-fluoro-1-(2-methyl-6-(2-propanyl)phenyl)-4-((2S)-2-methyl-4-(2-propenoyl)-1-piperazinyl)pyrido[2,3-d]pyrimidin-2(1H)-one]"
16,172 | nda μM,"C=CC(=O)N1CCN(c2nc(=O)c(-c3ccccc3C)c3cc(-c4ccccc4Br)c(C)nn23)CC1 [Example 81-1, 3-(2-Bromophenyl)-2-methyl-5-(2-methylphenyl)-8-(4-(2-propenoyl)-1-piperazinyl)-6H-pyrimido[1,6-b]pyridazin-6-one]"
17,14.1 | nda μM,"C=CC(=O)N1CCN(c2nc(=O)c(-c3ccccc3C(C)C)c3cc(-c4ccccc4F)c(C)nn23)CC1 [Example 81-2, 3-(2-fluorophenyl)-2-methyl-5-(2-(2-propanyl)phenyl)-8-(4-(2-propenoyl)-1-piperazinyl)-6H-pyrimido[1,6-b]pyridazin-6-one]"
18,2.87 | nda μM,"C=CC(=O)N1CCN(c2nc(=O)c(-c3ccccc3C(C)C)c3cc(-c4ccccc4F)c(C)nn23)[C@@H](C)C1 [Example 81-3, 3-(2-fluorophenyl)-2-methyl-8-((2S)-2-methyl-4-(2-propenoyl)-1-piperazinyl)-5-(2-(2-propanyl)phenyl)-6H-pyrimido[1,6-b]pyridazin-6-one]"
19,17.3 | nda μM,C=CC(=O)N1C[C@@H](C)N(c2nc(=O)n(-c3c(C(C)C)ncnc3C(C)C)c3nc(-c4ccccc4F)c(Cl)cc23)[C@H](C)C1 [Example 87-3]

# Same assay, conditions: read-out: Coupled exchange IC50 (5 min); 5 min compound pre-incubation
row,pIC50,Compound
1,5.20,C=CC(=O)N1CCN(c2nc(CO)c(-c3ccccc3C(C)C)c3nc(-c4ccccc4F)c(Cl)cc23)CC1 [Example 85-1]
